Experimental data: US20210130473A1, “TGFßR1 INHIBITOR-ASGR ANTIBODY CONJUGATES AND USES THEREOF” (Silverback Therapeutics, Inc., priority 2019, published 2021)

molecular target: T1, ALK5 (Homo sapiens, UniProt P36897); assay: ALK5 enzyme inhibition assay (casein substrate, 10 uM ATP, 33P-ATP, filter-binding; Reaction Biology Corp); assay type: biochemical; conditions: Table 11
T1 construct: purchased Reaction Biology Corp (Malvern, Pa.)
T1 sequence (P36897 34-503): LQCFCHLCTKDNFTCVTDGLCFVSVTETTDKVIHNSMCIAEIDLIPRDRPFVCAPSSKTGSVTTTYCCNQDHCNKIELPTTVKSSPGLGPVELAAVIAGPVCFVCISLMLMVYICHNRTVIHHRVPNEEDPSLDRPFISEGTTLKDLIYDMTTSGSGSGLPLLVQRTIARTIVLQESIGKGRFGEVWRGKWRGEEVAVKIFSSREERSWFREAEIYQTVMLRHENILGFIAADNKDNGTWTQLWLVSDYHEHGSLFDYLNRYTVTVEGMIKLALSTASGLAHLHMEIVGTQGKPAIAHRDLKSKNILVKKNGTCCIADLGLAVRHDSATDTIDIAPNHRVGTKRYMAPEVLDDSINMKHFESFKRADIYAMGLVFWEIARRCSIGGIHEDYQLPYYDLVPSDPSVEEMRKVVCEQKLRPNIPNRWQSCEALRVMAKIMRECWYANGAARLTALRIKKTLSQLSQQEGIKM
Protocol: ALK5 enzyme inhibition assays were performed by Reaction Biology Corp (Malvern, Pa.). 1 mg/mL of peptide substrate (casein) and 10 uM ATP were prepared in a mixture of fresh reaction buffer. The kinase was delivered into the substrate solution which was gently mixed. Compounds in 100% DMSO were added to the kinase reaction mixture by Acoustic technology (Echo550; nanoliter range) and the mixture was incubated for 20 min at room temperature. ^33P-ATP (Specific activity 10 uCi/uL) was added into the reaction mixture to initiate the reaction and the reaction mixture was incubated for 2 hours at room temperature. Radioactivity was detected by filter-binding method and kinase activity data were expressed as the percent remaining kinase activity in test samples compared to vehicle (dimethyl sulfoxide) reactions. IC50 values and curve fits were obtained using Prism (GraphPad Software).

Structure (SMILES) | IC50 [nM]
Cc1cccc(-c2nc(CNCc3ccccc3)[nH]c2-c2ccc3ncnn3c2)n1 [Compound 1, 1-(5-([1,2,4]triazolo[1,5-a]pyridin-6-yl)-4-(6-methylpyridin-2-yl)-1H-imidazol-2-yl)-N-benzylmethanamine] | 100 to 1000
Cc1cccc(-c2nc(CNCCc3c(F)cccc3F)[nH]c2-c2ccc3ncccc3c2)n1 [Compound 89] | 0.1 to 50

same assay, conditions: Table 12

Structure (SMILES) | IC50 [nM]
Cc1cccc(-c2nc(CNc3ccc4c(c3)CCC4N)[nH]c2-c2ccc3ncnn3c2)n1 (stereo not drawn) [Compound 1.5] | 100 to 1000
Cc1cccc(-c2nc(CNc3cccc4c3CCC4N)[nH]c2-c2ccc3ncnn3c2)n1 (stereo not drawn) [Compound 1.6] | 100 to 1000
Cc1cccc(-c2nc(CNC34CC(C3)C4)[nH]c2-c2ccc3ncnn3c2)n1 [Compound 1.9] | 1000 to 10000
Cc1cccc(-c2nc(CNC3CCCOC3)[nH]c2-c2ccc3ncnn3c2)n1 (stereo not drawn) [Compound 1.15] | 100 to 1000
Cc1cccc(-c2nc(CNC3CCCCC3C)[nH]c2-c2ccc3ncnn3c2)n1 (stereo not drawn) [Compound 1.16] | 100 to 1000
Cc1cccc(-c2nc(CNc3cccc4c3C(N)CC4)[nH]c2-c2ccc3ncnn3c2)n1 (stereo not drawn) [Compound 1.20] | 100 to 1000
Cc1cccc(-c2nc(CNc3ccc4c(c3)C(N)CC4)[nH]c2-c2ccc3ncnn3c2)n1 (stereo not drawn) [Compound 1.21] | 100 to 1000

tested on: TGFβ/SMAD Signaling Pathway SBE reporter cell line; assay: TGFb reporter assay in HEK293 SBE-LUC reporter cells (luciferase); assay type: cell-based; conditions: Homo sapiens, key of the table says IC50, read-out: EC50 (the source's name)
Protocol: TGFβ/SMAD Signaling Pathway SBE reporter cell line was obtained from BPS Bioscience. Cells are passed, expanded, and stored in liquid nitrogen as per the supplier's instructions with the exception that growth media is changed to DMEM-C with Geneticin (DMEM supplemented with 10% fetal bovine serum, 1×NEAA, 1 mM Pyruvate, 2 mM glutamine, 50 μg/mL penicillin, 50 U/mL streptomycin and 400 μg/mL of Geneticin). The assay media is MEM supplemented with 0.5% fetal bovine serum, 1×NEAA, 1 mM Pyruvate, 50 μg/mL penicillin and 50 U/mL streptomycin.
Compounds are assayed to measure their activity as ALK5 inhibitors.
The HEK293 SBE-LUC reporter cells from Example 15 were grown in DMEM-C with Geneticin (DMEM supplemented with […], 1×NEAA, 1 mM Pyruvate, 2 mM glutamine, 50 μg/mL penicillin, 50 U/mL streptomycin and 400 ug/mL of Geneticin). The assay media was MEM supplemented with 0.5% fetal bovine serum, 1×NEAA, 1 mM Pyruvate, 50 μg/mL penicillin and 50 U/mL streptomycin.
The HEK293 SBE-LUC reporter cells were harvested from the tissue culture flasks by incubation in small quantity of Versene at room temperature for three to five minutes after the media in the flask is removed and cells rinsed with PBS. Cells were counted and diluted in the assay media at ˜0.8×10^6 cells/mL then 50 uL/well were added to 96-well assay plate. Test samples (at desired concentrations diluted in assay media) were added to assay plate containing the 50 uL/well of cells (or media only), 50 uL per well, and incubated for 5-6 hours at 37° C. in a 5% CO2 humidified incubator. After that time, 15 uL of TGFb diluted to 12.5 ng/mL in the assay media was added to the plate. Controls included TGFb titration (from 25 to 0 ng/mL) without inhibitors, and media only (without cells, inhibitor or TGFb). Plates were incubated at 37° C. in a 5% CO2 humidified incubator for 18h. Luciferase substrate solution was subsequently added at 75 uL per well, incubated in dark with shaking at room temperature for 10 min, and luminescence was measured using a luminometer.

Structure (SMILES) | IC50 [nM]
Cc1cccc(-c2nc(CNCc3ccccc3)[nH]c2-c2ccc3ncnn3c2)n1 [Compound 1, 1-(5-([1,2,4]triazolo[1,5-a]pyridin-6-yl)-4-(6-methylpyridin-2-yl)-1H-imidazol-2-yl)-N-benzylmethanamine] | 0.1 to 10
Cc1cccc(-c2nc(CNc3ccc4c(c3)CNCC4)[nH]c2-c2ccc3ncnn3c2)n1 [Compound 1.1] | 100 to 1000
Cc1cccc(-c2nc(CNc3ccc4c(c3)CCNC4)[nH]c2-c2ccc3ncnn3c2)n1 [Compound 1.2] | 100 to 1000
Cc1cccc(-c2nc(CNc3cccc4c3CNCC4)[nH]c2-c2ccc3ncnn3c2)n1 [Compound 1.3] | 100 to 1000
Cc1cccc(-c2nc(CNc3cccc4c3CCNC4)[nH]c2-c2ccc3ncnn3c2)n1 [Compound 1.4] | 100 to 1000
Cc1cccc(-c2nc(CNc3ccc4c(c3)CCC4N)[nH]c2-c2ccc3ncnn3c2)n1 (stereo not drawn) [Compound 1.5] | 100 to 1000
Cc1cccc(-c2nc(CNc3cccc4c3CCC4N)[nH]c2-c2ccc3ncnn3c2)n1 (stereo not drawn) [Compound 1.6] | 100 to 1000
Cc1cccc(-c2nc(CNC3CC3)[nH]c2-c2ccc3ncnn3c2)n1 [Compound 1.7] | 100 to 1000
Cc1cccc(-c2nc(CNCC3CC3)[nH]c2-c2ccc3ncnn3c2)n1 [Compound 1.8] | 100 to 1000
Cc1cccc(-c2nc(CNC34CC(C3)C4)[nH]c2-c2ccc3ncnn3c2)n1 [Compound 1.9] | 10 to 100
Cc1cccc(-c2nc(CNC3CCC3)[nH]c2-c2ccc3ncnn3c2)n1 [Compound 1.10] | 100 to 1000
Cc1cccc(-c2nc(CNC3CCCC3)[nH]c2-c2ccc3ncnn3c2)n1 [Compound 1.11] | 10 to 100
Cc1cccc(-c2nc(CNC3CCCCC3)[nH]c2-c2ccc3ncnn3c2)n1 [Compound 1.12] | 10 to 100
Cc1cccc(-c2nc(CNC3CCCCCC3)[nH]c2-c2ccc3ncnn3c2)n1 [Compound 1.13] | 10 to 100
Cc1cccc(-c2nc(CNC3CCOCC3)[nH]c2-c2ccc3ncnn3c2)n1 [Compound 1.14] | 10 to 100
Cc1cccc(-c2nc(CNC3CCCOC3)[nH]c2-c2ccc3ncnn3c2)n1 (stereo not drawn) [Compound 1.15] | 10 to 100
Cc1cccc(-c2nc(CNC3CCCCC3C)[nH]c2-c2ccc3ncnn3c2)n1 (stereo not drawn) [Compound 1.16] | 10 to 100
Cc1cccc(-c2nc(CNc3cncc(CN)c3)[nH]c2-c2ccc3ncnn3c2)n1 [Compound 1.19] | 100 to 1000
Cc1cccc(-c2nc(CNc3cccc4c3C(N)CC4)[nH]c2-c2ccc3ncnn3c2)n1 (stereo not drawn) [Compound 1.20] | 100 to 1000
Cc1cccc(-c2nc(CNc3ccc4c(c3)C(N)CC4)[nH]c2-c2ccc3ncnn3c2)n1 (stereo not drawn) [Compound 1.21] | 100 to 1000
Cc1cccc(-c2nc(CNC3CCc4ccccc43)[nH]c2-c2ccc3ncnn3c2)n1 (stereo not drawn) [Compound 1.26] | 10 to 100
Cc1cccc(-c2nc(CNC3Cc4ccccc4C3)[nH]c2-c2ccc3ncnn3c2)n1 [Compound 1.27] | 10 to 100
Cc1cccc(-c2nc(CN3CCCCC3)[nH]c2-c2ccn3ncnc3c2)n1 [Compound 1.35] | 100 to 1000
Cc1cccc(-c2nc(CNC3CCCNC3)[nH]c2-c2ccn3ncnc3c2)n1 (stereo not drawn) [Compound 1.38] | 1000 to 10000
Cc1cccc(-c2nc(CNC3CCNCC3)[nH]c2-c2ccn3ncnc3c2)n1 [Compound 1.39] | 1000 to 10000
Cc1cccc(-c2nc(CN3CCc4ccccc4C3)[nH]c2-c2ccn3ncnc3c2)n1 [Compound 1.40] | 100 to 1000
Cc1cccc(-c2nc(CNCc3ccc4c(c3)OCO4)[nH]c2-c2ccc3ncnn3c2)n1 [Compound 1.41] | 100 to 1000

Structure (SMILES) | IC50 [nM]
Cc1cccc(-c2nc(CNCC3CCCCC3)[nH]c2-c2ccc3ncnn3c2)n1 [Compound 1.42] | 10 to 100
Cc1cccc(-c2nc(CN[C@H]3c4ccccc4C[C@H]3O)[nH]c2-c2ccc3ncnn3c2)n1 [Compound 1.43] | 10 to 100
Cc1cccc(-c2nc(CN[C@@H]3c4ccccc4C[C@@H]3O)[nH]c2-c2ccc3ncnn3c2)n1 [Compound 1.44] | 10 to 100
Cc1cccc(-c2nc(CN[C@H]3c4ccccc4C[C@@H]3O)[nH]c2-c2ccc3ncnn3c2)n1 [Compound 1.45] | 10 to 100
Cc1cccc(-c2nc(CN[C@@H]3c4ccccc4C[C@H]3O)[nH]c2-c2ccc3ncnn3c2)n1 [Compound 1.46] | 10 to 100
Cc1cccc(-c2nc(C3CCCCN3)[nH]c2-c2ccc3ncnn3c2)n1 (stereo not drawn) [Compound 1.49] | 100 to 1000
Cc1cccc(-c2nc(C3CCNC3)[nH]c2-c2ccc3ncnn3c2)n1 (stereo not drawn) [Compound 1.50] | 100 to 1000
Cc1cccc(-c2nc(C3CNC3)[nH]c2-c2ccc3ncnn3c2)n1 [Compound 1.53] | 1000 to 10000
Cc1cccc(-c2nc(CN3Cc4ccccc4C3=O)[nH]c2-c2ccc3ncnn3c2)n1 [Compound 1.56] | 10 to 100
Cc1cccc(-c2nc(CNCc3cccc4ccccc34)[nH]c2-c2ccc3ncnn3c2)n1 [Compound 1.57] | 10 to 100
Cc1cccc(-c2nc(CNCc3ccc4ccccc4c3)[nH]c2-c2ccc3ncnn3c2)n1 [Compound 1.58] | 100 to 1000
Cc1cccc(-c2nc(CNCCc3cccc4ccccc34)[nH]c2-c2ccc3ncnn3c2)n1 [Compound 1.59] | 10 to 100
Cc1cccc(-c2nc(CNCCc3ccnc4ccccc34)[nH]c2-c2ccc3ncnn3c2)n1 [Compound 1.60] | 10 to 100
Cc1cccc(-c2nc(CNCCc3cccc4ncccc34)[nH]c2-c2ccc3ncnn3c2)n1 [Compound 1.61] | 10 to 100
Cc1cccc(-c2nc(CNCc3ccccc3Oc3ccncc3)[nH]c2-c2ccc3ncnn3c2)n1 [Compound 55] | 1000 to 10000
Cc1cccc(-c2nc(CNCc3cccc(Oc4ccccc4)c3)[nH]c2-c2ccc3ncnn3c2)n1 [Compound 56] | 10 to 100
Cc1cccc(-c2nc(CNCc3cccc(Oc4cccnc4)c3)[nH]c2-c2ccc3ncnn3c2)n1 [Compound 57] | 10 to 100
Cc1cccc(-c2nc(CNCc3cccc(Oc4ccncc4)c3)[nH]c2-c2ccc3ncnn3c2)n1 [Compound 58] | 10 to 100
Cc1cccc(-c2nc(CNCc3ccccc3-c3ccccc3)[nH]c2-c2ccc3nccnc3c2)n1 [Compound 72] | 10 to 100
Cc1cccc(-c2nc(CNCc3ccccc3)[nH]c2-c2ccc3ncccc3n2)n1 [Compound 73] | 100 to 1000
Cc1cccc(-c2nc(CNCc3ccccc3)[nH]c2-c2ccnc3ccccc23)n1 [Compound 74] | 100 to 1000
Cc1cccc(-c2nc(CNCc3ccccc3)[nH]c2-c2ccccn2)n1 [Compound 75] | 100 to 1000
Cc1cccc(-c2nc(CNCc3ccccc3)[nH]c2-c2ccc3c(c2)OCO3)n1 [Compound 76] | 10 to 100
Cc1cccc(-c2nc(CNCc3ccccc3)[nH]c2-c2ccc3nccnc3c2)n1 [Compound 77] | 0.1 to 10
Cc1cccc(-c2nc(CNCCc3c(F)cccc3F)[nH]c2-c2ccc3ncccc3n2)n1 [Compound 78] | 0.1 to 10
Cc1cccc(-c2nc(CNCCc3c(F)cccc3F)[nH]c2-c2ccnc3ccccc23)n1 [Compound 79] | 100 to 1000
Cc1cccc(-c2nc(CNCCc3c(F)cccc3F)[nH]c2-c2ccncc2)n1 [Compound 80] | 100 to 1000
